Source: US20210300943A1, “OGA INHIBITOR COMPOUNDS” (Janssen Pharmaceutica NV, priority 2018, published 2021)
Counter-ions that a name gives are not always drawn.

How the values were obtained:
[1] = target: T1, recombinant human Meningioma Expressed Antigen 5 (MGEA5), also referred to as O-GlcNAcase (OGA) (Homo sapiens, UniProt O60502); experiment: OGA biochemical assay (inhibition of FM-GlcNAc hydrolysis, fluorescence)
T1 construct: Full length OGA enzyme was purchased at OnGene (cat #TP322411); purchased OnGene (so in the source)
T1 sequence (O60502 1-916): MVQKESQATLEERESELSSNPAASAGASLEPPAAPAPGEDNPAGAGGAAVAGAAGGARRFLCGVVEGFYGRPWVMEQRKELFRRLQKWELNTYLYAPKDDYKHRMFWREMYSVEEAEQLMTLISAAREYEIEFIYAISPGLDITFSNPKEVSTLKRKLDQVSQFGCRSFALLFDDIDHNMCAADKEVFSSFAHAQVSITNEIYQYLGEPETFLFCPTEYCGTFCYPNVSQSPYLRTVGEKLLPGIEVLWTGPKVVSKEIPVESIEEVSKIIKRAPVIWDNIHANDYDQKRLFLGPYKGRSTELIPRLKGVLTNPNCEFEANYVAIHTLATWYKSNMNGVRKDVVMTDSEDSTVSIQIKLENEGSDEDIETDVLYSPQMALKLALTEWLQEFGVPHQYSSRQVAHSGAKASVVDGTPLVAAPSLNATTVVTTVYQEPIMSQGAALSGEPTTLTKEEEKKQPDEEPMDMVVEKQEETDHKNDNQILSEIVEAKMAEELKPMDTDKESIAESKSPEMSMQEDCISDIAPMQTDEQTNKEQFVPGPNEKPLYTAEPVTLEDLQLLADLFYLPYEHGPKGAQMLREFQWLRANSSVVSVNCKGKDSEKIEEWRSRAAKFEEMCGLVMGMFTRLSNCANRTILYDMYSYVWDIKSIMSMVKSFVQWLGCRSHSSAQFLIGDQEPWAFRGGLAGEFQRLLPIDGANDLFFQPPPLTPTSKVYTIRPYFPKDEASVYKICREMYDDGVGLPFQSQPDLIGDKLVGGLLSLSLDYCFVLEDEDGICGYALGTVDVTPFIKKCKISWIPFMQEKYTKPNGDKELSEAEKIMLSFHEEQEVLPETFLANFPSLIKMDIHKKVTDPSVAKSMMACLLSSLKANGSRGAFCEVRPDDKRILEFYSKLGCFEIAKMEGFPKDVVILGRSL
In short: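 Full-length recombinant OGA (2 nM) pre-incubated with compound 60 min at room temperature, then FM-GlcNAc (100 µM final) added in citrate/phosphate buffer pH 7.2 with 0.005% Tween-20. After 6 h at room temperature, stopped with carbonate pH 11.0; fluorescein read at 485/538 nm; IC50 and Hill coefficient from curve fit.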

OGA = target: T2, OGA (Homo sapiens, UniProt O60502); experiment: OGA cellular assay (ICC detection of O-GlcNAcylated proteins in HEK293 cells inducible for P301L mutant human Tau); type: cell-based
T2 construct: endogenous in cells; host or cells: HEK293 cells inducible for P301L mutant human Tau (2N4R)
T2 sequence (O60502 1-916): T1 sequence (O60502 1-916)
In short: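 HEK293 cells inducible for P301L Tau, in low-glucose assay medium, treated 6 h with compound at 0.2% DMSO. O-GlcNAcylated proteins detected by CTD110.6 immunostaining, imaged at 488 nm with Hoechst nuclear counts for toxicity. IC50 from non-linear regression, 200 uM Thiamet G as maximum.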

Compound	melting point	also measured
Cc1cc(NCC2CCCN(C(C)c3ccc4c(n3)OCCO4)C2)cc(C)n1 (centres unmarked) (as salt: HCl) [Product 21]	193 °C	
Cc1cc(NCC2CCCN(C(C)c3ccc4c(c3)OCC4)C2)cc(C)n1 (centres unmarked) (as salt: HCl) [Product 22]	248.4 °C	
COc1cc(NCC2CCCN(C(C)c3ccc4c(n3)OCCO4)C2)cc(C)n1 (centres unmarked) (as salt: HCl) [Product 23]	266.7 °C	
COc1cc(NCC2CCCN(C(C)c3ccc4c(c3)OCC4)C2)cc(C)n1 (centres unmarked) (as salt: HCl) [Product 30]	261.3 °C	
COc1cc(NCC2CCCN(C(C)c3cc4c(cc3F)OCCO4)C2)cc(C)n1 (centres unmarked) (as salt: HCl) [Product 38]	164.7 °C	
Cc1cc(NCC2CCCN(C(C)c3cc4c(cc3F)OCCO4)C2)cc(C(F)(F)F)n1 (centres unmarked) (as salt: HCl) [Product 99]	235.3 °C	
Cc1cc(C[C@H]2CCCN(C(C)c3ccc4c(n3)OCC(=O)N4)C2)cc(C)n1 (single isomer, unassigned) [Product 61]	62.45 °C	Enzymatic Emax (%) ([1]; maximal effect): 102%; IC50 ([1]; read-out: Enzymatic hOGA, pIC50 (converted)): 39.8 nM; Emax (OGA; HEK293, HEK293 cells inducible for P301L mutant human Tau, maximal effect, Thiamet G 200 uM as maximum): 45%; EC50 (OGA; HEK293 cells inducible for P301L mutant human Tau, 6 hours incubation, read-out: Cellular hOGA, pEC50 (converted)): > 1000 nM
